Results: ChEMBL document CHEMBL3137667, “[Drug-induced liver injury; fourteenth updated edition of the bibliographic database of liver injuries and related drugs]” (Gastroenterol Clin Biol, 2004)

Key:
[1] = human
[2] = human; remark: listed apart in the source
[3] = Highest frequency of acute liver toxicity observed during clinical trials, expressed as a percentage. [column '% AIGUE' in source]; conditions: human
[4] = Highest frequency of moderate liver toxicity observed during clinical trials, expressed as a percentage. [column '% BIOL' in source]; conditions: human
[5] = human, serum
[6] = Times to onset, minimal and maximal, observed in the indexed observations. [column 'DELAI' in source]; conditions: human
[7] = human; remark: listed apart in the source
[8] = human; remark: listed apart in the source
[9] = human; remark: listed apart in the source
[10] = human; remark: listed apart in the source
[11] = human; remark: listed apart in the source
[12] = human, serum, 4383 h
[13] = human, serum; remark: listed apart in the source
[14] = human; remark: listed apart in the source
[15] = human; remark: listed apart in the source
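Throughout, for Hepatotoxicity (association with vascular disease): count of indexed literature references reporting vascular liver injury in humans, e.g. peliosis hepatitis, hepatic veno-occlusive disease or Budd-Chiari syndrome.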
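Throughout, for Hepatotoxicity (benign tumour): value is a count of indexed literature references citing a benign tumour confirmed by histopathology.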
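Throughout, for Hepatotoxicity (choleostasis): human cholestatic liver injury, shown by histopathology or by peak ALT or AST elevation over alkaline phosphatase ratio below 2, value counts indexed literature reports.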
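Throughout, for Hepatotoxicity (chronic liver disease): chronic liver injury confirmed by histopathology or persistently raised serum aminotransferase activity beyond 6 months, value given as the count of indexed literature references.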
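Throughout, for Hepatotoxicity (cirrhosis): value is a count of indexed literature references reporting cirrhosis confirmed by histopathology.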
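Throughout, for Hepatotoxicity (cytolytic): human cytolytic liver injury, shown by histopathology or by a ratio above 5 of peak ALT or AST elevation to alkaline phosphatase elevation, value counts indexed references.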
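Throughout, for Hepatotoxicity (granulomatous hepatitis): value is a count of indexed literature references reporting granulomatous liver disease confirmed by histopathology.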
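Throughout, for Hepatotoxicity (malignant tumour): malignant tumour confirmed by histopathology, value gives the count of indexed literature references reporting it.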
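Throughout, for Hepatotoxicity (severe hepatitis): human clinical data: severe hepatitis, meaning potentially life-threatening liver failure or clinically observed cases, the value counts how many indexed literature references report it.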
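Throughout, for Hepatotoxicity (steatosis): steatosis confirmed by histopathology, value is the count of indexed references.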

Structure (SMILES)	Hepatotoxicity (severe hepatitis) [1]	Hepatotoxicity (granulomatous hepatitis) [2]	Hepatotoxicity (acute) [3]	Hepatotoxicity (moderate) [4]	Hepatotoxicity (moderate) [5]	Hepatotoxicity (time to onset) [6]	Hepatotoxicity (cytolytic) [7]	Hepatotoxicity (steatosis) [8]	Hepatotoxicity (benign tumour) [9]	Hepatotoxicity (association with vascular disease) [10]	Hepatotoxicity (choleostasis) [11]	Hepatotoxicity (chronic liver disease) [12]	Hepatotoxicity (acute) [13]	Hepatotoxicity (malignant tumour) [14]	Hepatotoxicity (cirrhosis) [15]	also measured
O=C1CC2(CCCC2)CC(=O)N1CCCCN1CCN(c2ncccn2)CC1 [BUSPIRONE]	0	0	0%	5.3%	2	26 days	1	0	0	0	1	0	1	0	0	–
C=CCC1(CC(C)C)C(=O)NC(=O)NC1=O [BUTALBITAL]	0	0	0%	0%	0	2.5 months	1	0	0	0	0	0	1	0	0	–
CN(C)C(=O)OC1N=C(c2ccccc2)c2cc(Cl)ccc2N(C)C1=O (stereo not given) [CAMAZEPAM]	0	0	0%	0%	0	3 months	1	0	0	0	0	0	1	0	0	–
CCCC(C)(COC(N)=O)COC(=O)NC(C)C (stereo not given) [CARISOPRODOL]	0	0	0%	0%	0	2 weeks	1	0	0	0	0	0	1	0	0	–
COc1ccccc1OCCNCC(O)COc1cccc2[nH]c3ccccc3c12 (stereo not given) [CARVEDILOL]	–	0	–	–	0	6 months	1	0	0	0	1	0	1	0	0	Hepatotoxicity (severe hepatitis) ([1]; Liver): 0; Hepatotoxicity (acute) ([3]; Liver): 0%; Hepatotoxicity (moderate) ([4]; Liver): 0%
N[C@@H](C(=O)N[C@@H]1C(=O)N2C(C(=O)O)=C(Cl)CS[C@H]12)c1ccccc1 [CEFACLOR ANHYDROUS]	0	0	2.2%	10.7%	20	8 days	1	0	0	0	2	0	2	0	0	–
Cn1nnnc1SCC1=C(C(=O)O)N2C(=O)[C@@H](NC(=O)[C@H](O)c3ccccc3)[C@H]2SC1 [CEFAMANDOLE]	0	0	2.4%	75%	13	4 days	0	0	0	0	1	0	2	0	0	–
C=CC1=C(C(=O)O)N2C(=O)[C@@H](NC(=O)/C(=N\OCC(=O)O)c3csc(N)n3)[C@H]2SC1 [CEFIXIME]	0	0	0%	33.3%	37	2 days	0	0	0	0	1	0	1	0	0	–
CO[C@@]1(NC(=O)CSC[C@@H](N)C(=O)O)C(=O)N2C(C(=O)O)=C(CSc3nnnn3C)CS[C@@H]21 [CEFMINOX]	–	–	–	–	12	9 days	–	0	0	0	–	0	2	0	0	Hepatotoxicity (severe hepatitis) ([1]; Liver): 0; Hepatotoxicity (granulomatous hepatitis) ([2]; Liver): 0; Hepatotoxicity (acute) ([3]; Liver): 0.1%; Hepatotoxicity (moderate) ([4]; Liver): 16.7%; Hepatotoxicity (cytolytic) ([7]; Liver): 0; Hepatotoxicity (choleostasis) ([11]; Liver): 0
NCc1ccccc1CC(=O)N[C@@H]1C(=O)N2C(C(=O)O)=C(CSc3nnnn3CC(=O)O)CS[C@H]12 [CEFORANIDE]	0	0	3.4%	42.9%	6	5 days - 3 weeks	2	0	0	0	1	0	2	0	0	–
CO/N=C(\C(=O)N[C@@H]1C(=O)N2C(C(=O)O)=C(COC(C)=O)CS[C@H]12)c1csc(N)n1 [CEFOTAXIME]	0	0	3.3%	33.3%	33	3 days - 2 weeks	1	0	0	0	2	0	4	0	0	–
CN(C)CCn1nnnc1SCC1=C(C(=O)O)N2C(=O)[C@@H](NC(=O)Cc3csc(N)n3)[C@H]2SC1 [CEFOTIAM]	0	0	0.8%	33%	8	4 days	0	0	0	0	0	0	1	0	0	–
Cc1cc(O)c(C(=O)N[C@@H](C(=O)N[C@@H]2C(=O)N3C(C(=O)O)=C(CSc4nnnn4C)CS[C@H]23)c2ccc(O)cc2)cn1 [CEFPIRAMIDE]	0	0	0%	10%	5	1 month	1	0	0	0	0	0	1	0	0	–
Cc1ccc(-c2cc(C(F)(F)F)nn2-c2ccc(S(N)(=O)=O)cc2)cc1 [CELECOXIB]	–	–	–	–	3	2 days - 3 weeks	–	0	0	0	–	0	8	0	0	Hepatotoxicity (severe hepatitis) ([1]; Liver): 0; Hepatotoxicity (granulomatous hepatitis) ([2]; Liver): 0; Hepatotoxicity (acute) ([3]; Liver): 0%; Hepatotoxicity (moderate) ([4]; Liver): 2%; Hepatotoxicity (cytolytic) ([7]; Liver): 5; Hepatotoxicity (choleostasis) ([11]; Liver): 4
